Experimental data reported in patent US11612572B2, “Treatment of schizophrenia using beta-caryophyllene and CB2 receptor agonists” (priority 2012, dated 2023).
“Also recorded” adds a separate entry of the source.

How the values were obtained:
[1] = system: mouse model of schizophrenia; experiment: Prepulse inhibition (PPI) of the startle reflex; conditions: for % inhibition (ability to adjust to sound stimulus, PPI): Study I, age 8 weeks
[2] = in vivo; cited from earlier work
cannabinoid receptor CB2 = cannabinoid receptor CB2 (Homo sapiens, UniProt P34972); conditions: cited from earlier work
Sequence of cannabinoid receptor CB2 (P34972 whole entry): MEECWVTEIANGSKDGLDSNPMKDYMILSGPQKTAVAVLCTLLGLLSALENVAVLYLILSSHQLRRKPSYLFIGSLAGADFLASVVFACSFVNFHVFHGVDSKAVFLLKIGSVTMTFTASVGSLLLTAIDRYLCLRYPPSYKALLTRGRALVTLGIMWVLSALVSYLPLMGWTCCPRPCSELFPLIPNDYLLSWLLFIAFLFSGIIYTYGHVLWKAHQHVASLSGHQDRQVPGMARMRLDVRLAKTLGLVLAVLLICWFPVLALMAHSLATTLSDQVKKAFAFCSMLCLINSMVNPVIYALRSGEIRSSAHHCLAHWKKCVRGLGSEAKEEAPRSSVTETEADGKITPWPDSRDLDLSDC

[3] = orally-administered; cited from earlier work
[4] = system: mouse model of schizophrenia; experiment: Elevated Plus Maze test; conditions: for time spent in the distal end of the opened arm (anxiety): Study I, age 13 weeks
[5] = system: mouse model of schizophrenia; experiment: Open-field test (ambulation/crossing, rearing, grooming)
[6] = system: mouse model of schizophrenia; experiment: Behavior in the Phenotyper cage; format: in vivo, mice; conditions: Study II
[7] = Body weight of mice in the neonatal PCP model
[8] = Study II, PND 68, saline-treated mice
[9] = Study III: male mice, PND 17, PCP 5 mg/kg, 1 h later BCP 10 mg/kg or BCP+AM630 10 mg/kg each, DMSO-based vehicle

For beta-caryophyllene [BCP], the “% inhibition (ability to adjust to sound stimulus, PPI)” value ([1]; females (FIG. 5D)) was “No significant difference”, the “% inhibition (ability to adjust to sound stimulus, PPI)” value ([1]; males (FIG. 5B)) was “reversed this effect; also recorded: significantly reversed the effect of PCP on the sensorimotor-gate in males” and the “response to startle at the end of the PPI test” value ([1]; Study II, PND 68 (FIGS. 18A-18C)) was “did not affect the response to startle at the end of the PPI test”. For the same substance, the “pre-pulse inhibition (% PPI)” value ([1]; Study II, PND 68, PCP-treated mice (FIG. 16A)) was “significantly reversed the effect of PCP on pre-pulse inhibition; also recorded: reversed the effect of PCP on PPI”, the “response to pre-pulse tones” value ([1]; Study II, PND 68, PCP-treated mice (FIGS. 17A-17C)) was “significantly reversed the effect of PCP on response to pre-pulse tones; also recorded: reversed the effect of PCP on the response to tone” and the startle response ([1]; Study II, PND 68, females (FIG. 16B)) was “significantly reversed the effect of PCP on startle response in females”. For the same substance, the “response to the startle stimuli” value ([1]; Study II, PND 68, males (FIG. 16C)) was “no difference in the response to the startle stimuli between groups”, the “pre-pulse inhibition (% PPI)” value [1, 8] was “no substantial effect on saline-treated mice” and the “response to pre-pulse tones” value [1, 8] was “no effect on saline-treated mice”. For the same substance, the “response to the startle stimuli (120 dB)” value ([1]; Study II, PND 106 (FIGS. 25A-25C)) was “no difference in the response to the startle stimuli (120 dB) between groups”, the response to tones ([1]; Study II, PND 106 (FIGS. 25D-25F)) was “reversed the effect of PCP on the response to tones” and the “% pre-pulse inhibition (PPI)” value ([1]; Study II, PND 106 (FIGS. 25G-25I)) was “reversed the effect of PCP on the % pre-pulse inhibition; also recorded: reversed the effect of PCP on attention at PND106”. The toxicity [2] was “apparent substantial non-toxicity”, the “activity at CB2 receptor” value (cannabinoid receptor CB2) was “CB2-receptor agonist” and the “oral absorption / systemic availability” value [3] was “absorbed by the digestive tract and becomes systemically available”. The “time spent in the distal end of the opened arm (anxiety)” value ([4]; females (FIGS. 6E, 6G)) was “reversed this effect; also recorded: reversed both effects”, the “time spent in the distal end of the opened arm (anxiety)” value ([4]; males (FIGS. 6F, 6H)) was “reversed this effect; also recorded: reversed both effects” and the “behavior in the Plus Maze test” value ([4]; Study II, PND 64 (FIGS. 19A-19F)) was “did not reverse the effects of PCP on behavior in the Plus Maze test”. For the same substance, the ambulation ([5]; Study I, DMSO-based carrier, PND 17, males (FIG. 12A)) was “completely reversed the effects of PCP”, the rearing behavior ([5]; Study I, DMSO-based carrier, PND 17, males (FIG. 12B)) was “completely reversed the effects of PCP” and the rearing ([5]; Study I, ethanol-based vehicle, PND 17 (FIG. 2B)) was “reversed the effects of PCP on rearing and exploration”. The “ambulation (exploration)” value ([5]; Study I: PCP 5 mg/kg, BCP 10 mg/kg, ethanol-based vehicle, PND 17 (FIG. 2A)) was “reversed the effects of PCP on rearing and exploration”, the ambulation ([5]; Study I, PND 17, females) was “reversed a proportion of the effects of PCP on ambulation and rearing behavior of female mice” and the rearing behavior ([5]; Study I, PND 17, females) was “reversed a proportion of the effects of PCP on ambulation and rearing behavior of female mice”. For the same substance, the locomotor activity ([5]; Study I, PND 17, males) was “appeared to be less sensitive to the treatment of PCP or PCP+BCP”, the “rearing and exploration behaviors” value ([5]; Study I, PND 35-37, females (FIGS. 4E, 4F)) was “no differences in rearing and exploration behaviors were seen between the different groups” and the rearing behavior ([5]; Study I, PND 35-37, males (FIG. 4B)) was “significantly reduced rearing behavior as compared to vehicle and PCP-treated groups”. The locomotor activity ([5]; Study I, PND 35-37, males (FIG. 4C)) was “reduced locomotor activity; also recorded: significantly reversed the effect of PCP in males”, the exploration ([5]; Study II: BCP in adolescence compared with saline-treated mice, PND 63) was “significantly inhibited the exploration of mice compared with saline-treated mice” and the ambulation ([5]; Study II: neonatal PCP, BCP 5 mg/kg PND 43-61, PND 63, male and female) was “significantly reversed the effect of PCP on ambulation in male and female mice”. The rearing ([5]; Study II, PND 63, females and males (FIGS. 15A-15C)) was “reversed the effect of PCP on rearing in both females and males”, the exploratory behavior ([5]; Study II, PND 104, females (last BCP treatment PND 61)) was “a relapse in exploratory behavior was evident” and the “self-grooming (total, without stimuli)” value ([5]; Study II, PND 104, females or males) was “did not reverse the effect of PCP on self-grooming; also recorded: did not reverse the effect of PCT on grooming”. For the same substance, the exploration ([5]; Study II, PND 104, males) was “improved exploration and rearing behaviors of male PCP treated mice”, the rearing behavior ([5]; Study II, PND 104, males) was “still significantly higher than that of PCP-treated mice with no BCP treatment; also recorded: improved exploration and rearing behaviors of male PCP treated mice” and the ambulation [5, 9] was “reversed the effects of PCP on rearing and exploration”. The rearing [5, 9] was “reversed the effects of PCP on rearing and exploration”, the “time spent in the food zone” value ([6]; PND 91) was “did not affect the time spend in the food zone” and the “time spent at the drinking zone” value ([6]; PND 91, compared with PCP-treated group) was “appeared to reduce the time spend at the drinking zone”. The “frequency of entries to the wheel” value ([6]; PND 91, females and males) was “reversed the effects of PCP on the frequency of entries to the wheel; also recorded: reversed the effects of PCP on frequency of entries to the wheel”, the “time spent in the Hidden Zone” value ([6]; PND 91, females and males) was “reversed the effects of PCP on the time spend in the Hidden Zone; also recorded: reversed the effects of PCP on the time spent in the hidden zone” and the “frequency of entries to the hidden zone” value ([6]; PND 91, males (FIG. 20D)) was “reversed the effect of PCP in males”. The “frequency of entries to the Wheel Zone” value ([6]; PND 105) was “appeared to reduce the effect of PCP on the frequency of entries to the Wheel Zone”, the “frequency of entries to the hidden zone” value ([6]; PND 105) was “reversed the effects of PCP on the frequency of entries to the hidden zone; also recorded: reversed the effect of PCP on frequency of entries to hidden zone” and the “time spent at the hidden zone” value ([6]; PND 105) was “reversed the effects of PCP on the time spend at the hidden zone; also recorded: reversed the effect of PCP on time spent at the hidden zone”. The “time spent in the wheel” value ([6]; PND 105) was “showed a trend to reverse the effect of PCP on the time spend in the wheel”, the body weight ([7]; Study I, BCP 10 mg/kg in DMSO-based vehicle (FIG. 12C)) was “completely reversed the effect of PCP on body weight” and the body weight ([7]; Study I, ethanol-based vehicle, PND 7 / first week of life (FIG. 1B)) was “reversed the reduction in body weight during the first week of life”. The body weight ([7]; Study I: PCP 5 mg/kg PND 3-16, BCP 10 mg/kg 1 h after PCP, ethanol-based vehicle, each day of injection PND 3-17 (FIG. 1A)) was “did not restore the weight completely”, the body weight ([7]; Study I, PND 17 (FIG. 2C)) was “no significant difference between groups treated with PCP with or without BCP” and the body weight ([7]; Study I, PND 17, males (FIG. 3A)) was “appeared to be more prominent”. The body weight ([7]; Study I, PND 35-37, females (FIG. 4D)) was “significantly reversed the effect of PCP on female body weight”, the body weight ([7]; Study I, PND 35-37, males (FIG. 4A)) was “no significant difference in male body weight between the groups” and the body weight ([7]; Study II: BCP 5 mg/kg twice a week on PND 43-61 (FIG. 14A)) was “did not affect body weight”. The body weight ([7]; Study II, PND 104) was “did not increase body weight in females and males, rather reduced body weight of PCP+BCP treated group”.
